Reference: article PMC8539420, “Discovery of a Potent and Selective JNK3 Inhibitor with Neuroprotective Effect Against Amyloid β-Induced Neurotoxicity in Primary Rat Neurons” (International Journal of Molecular Sciences, 2021)
Read-outs that look alike come from different tables or passages of the source.

Biological target: T1, JNK3(h) (Homo sapiens, UniProt P53779)
T1 construct: purchased Reaction Biology Corp
Experiment: Kinase HotSpot radiometric assay, JNK3
Assay type: biochemical

[1] = ATP 10 μM, substrate ATF2 5 μM, read-out: JNK3 inhibitory activity IC50

T1 sequence (P53779 whole entry): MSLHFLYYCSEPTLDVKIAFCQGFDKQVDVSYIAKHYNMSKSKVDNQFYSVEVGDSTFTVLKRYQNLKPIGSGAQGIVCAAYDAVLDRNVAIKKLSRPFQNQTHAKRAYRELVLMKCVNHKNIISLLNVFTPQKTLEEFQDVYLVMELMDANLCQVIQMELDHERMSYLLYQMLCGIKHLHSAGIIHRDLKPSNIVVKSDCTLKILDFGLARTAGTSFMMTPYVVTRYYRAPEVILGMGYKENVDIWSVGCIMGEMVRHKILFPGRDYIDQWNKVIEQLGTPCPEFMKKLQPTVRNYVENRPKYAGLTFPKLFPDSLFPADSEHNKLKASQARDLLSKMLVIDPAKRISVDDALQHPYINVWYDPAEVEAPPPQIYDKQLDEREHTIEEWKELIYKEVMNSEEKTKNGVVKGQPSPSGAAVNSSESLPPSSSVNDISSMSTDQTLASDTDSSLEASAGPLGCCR

| IC50 [1] | IC50 (read-out: JNK3 IC50) | Compound |
| --- | --- | --- |
| 1480 nM |  | Oc1ccc2c(c1)nc(-c1ccc3ccccc3c1)n2-c1ccnc(NC2CCOCC2)n1 [9a] |
| > 10000 nM |  | Oc1ccc2c(c1)nc(-c1ccc3c(c1)OCCO3)n2-c1ccnc(NC2CCOCC2)n1 [9b, 2-(2,3-Dihydrobenzo[b][1,4]dioxin-6-yl)-1-(2-((tetrahydro-2H-pyran-4-yl)amino)pyrimidin-4-yl)-1H-benzo[d]imidazol-5-ol] |
| 4310 nM |  | Oc1ccc2c(c1)nc(-c1ccc3occc3c1)n2-c1ccnc(NC2CCOCC2)n1 [9c, 2-(Benzofuran-5-yl)-1-(2-((tetrahydro-2H-pyran-4-yl)amino)pyrimidin-4-yl)-1H-benzo[d] imidazol-5-ol] |
| 420 nM |  | Oc1ccc2c(c1)nc(-c1ccc3ccccc3c1)n2-c1ccnc(NC2CCCCC2)n1 [10a, 1-(2-(cyclohexylamino)pyrimidin-4-yl)-2-(naphthalen-2-yl)-1H-benzo[d]imidazol-5-ol] |
| 1210 nM |  | Oc1ccc2c(c1)nc(-c1ccc3c(c1)OCCO3)n2-c1ccnc(NC2CCCCC2)n1 [10b, 1-(2-(Cyclohexylamino)pyrimidin-4-yl)-2-(2,3-dihydrobenzo[b][1, 4]dioxin-6-yl)-1H-benzo [d]imidazol-5-ol] |
| 299 nM |  | Oc1ccc2c(c1)nc(-c1ccc3occc3c1)n2-c1ccnc(NC2CCCCC2)n1 [10c, 2-(Benzofuran-5-yl)-1-(2-(cyclohexylamino)pyrimidin-4-yl)-1H-benzo[d]imidazol-5-ol] |
| 139 nM |  | Oc1ccc2c(c1)nc(-c1ccc(Cl)c(Cl)c1)n2-c1ccnc(NC2CCCCC2)n1 [10d, 1-(2-(Cyclohexylamino)pyrimidin-4-yl)-2-(3,4-dichlorophenyl)-1H-benzo[d]imidazol-5-ol] |
| 799 nM |  | Oc1ccc2c(c1)nc(-c1ccc(F)c(C(F)(F)F)c1)n2-c1ccnc(NC2CCCCC2)n1 [10e, 1-(2-(Cyclohexylamino)pyrimidin-4-yl)-2-(4-fluoro-3-(trifluoromethyl)phenyl)-1H-benzo [d]imidazol-5-ol] |
| 424 nM |  | Oc1ccc2c(c1)nc(-c1ccc3ccccc3n1)n2-c1ccnc(NC2CCCCC2)n1 [10f, 1-(2-(Cyclohexylamino)pyrimidin-4-yl)-2-(quinolin-2-yl)-1H-benzo[d]imidazol-5-ol] |
| 391 nM |  | O=C(C1CC1)N1CCC[C@H](Nc2nccc(-n3c(-c4ccc5ccccc5c4)nc4cc(O)ccc43)n2)C1 [13a, (S)-cyclopropyl(3-((4-(5-hydroxy-2-(naphthalen-2-yl)-1H-benzo[d]imidazol-1-yl)pyrimidin-2-yl)amino)piperidin-1-yl)methanone] |
| 679 nM |  | O=C(C1CC1)N1CCC[C@H](Nc2nccc(-n3c(-c4ccc5c(c4)OCCO5)nc4cc(O)ccc43)n2)C1 [13b, (S)-Cyclopropyl(3-((4-(2-(2,3-dihydrobenzo[b][1, 4]dioxin-6-yl)-5-hydroxy-1H-benzo[d]imidazol-1-yl)pyrimidin-2-yl)amino)piperidin-1-yl)methanone] |
| 287 nM |  | O=C(C1CC1)N1CCC[C@H](Nc2nccc(-n3c(-c4ccc5occc5c4)nc4cc(O)ccc43)n2)C1 [13c, (S)-(3-((4-(2-(Benzofuran-5-yl)-5-hydroxy-1H-benzo[d]imidazol-1-yl)pyrimidin-2-yl)amino)piperidin-1-yl)(cyclopropyl)methanone] |
| 128 nM |  | O=C(C1CC1)N1CCC[C@H](Nc2nccc(-n3c(-c4ccc(Cl)c(Cl)c4)nc4cc(O)ccc43)n2)C1 [13d, (S)-Cyclopropyl(3-((4-(2-(3,4-dichlorophenyl)-5-hydroxy-1H-benzo[d]imidazol-1-yl)pyrimidin-2-yl)amino)piperidin-1-yl)methanone] |
| 679 nM |  | O=C(C1CC1)N1CCC[C@H](Nc2nccc(-n3c(-c4ccc(F)c(C(F)(F)F)c4)nc4cc(O)ccc43)n2)C1 [13e, (S)-Cyclopropyl(3-((4-(2-(4-fluoro-3-(trifluoromethyl)phenyl)-5-hydroxy-1H-benzo[d]imidazol-1-yl)pyrimidin-2-yl)amino)piperidin-1-yl)methanone] |
| 161 nM |  | O=C(C1CC1)N1CCC[C@H](Nc2nccc(-n3c(-c4ccc5ccccc5n4)nc4cc(O)ccc43)n2)C1 [13f, (S)-Cyclopropyl(3-((4-(5-hydroxy-2-(quinolin-2-yl)-1H-benzo[d]imidazol-1-yl)pyrimidin-2-yl)amino)piperidin-1-yl)methanone] |
| 1430 nM |  | Oc1ccc2nc(-c3ccc4ccccc4c3)n(-c3ccnc(NC4CCOCC4)n3)c2c1 [22a, 2-(Naphthalen-2-yl)-1-(2-((tetrahydro-2H-pyran-4-yl)amino)pyrimidin-4-yl)-1H-benzo[d]imidazol-6-ol] |
| 1550 nM |  | Oc1ccc2nc(-c3ccc4c(c3)OCCO4)n(-c3ccnc(NC4CCOCC4)n3)c2c1 [22b, 2-(2,3-Dihydrobenzo[b][1,4]dioxin-6-yl)-1-(2-((tetrahydro-2H-pyran-4-yl)amino)pyrimidin-4-yl)-1H-benzo[d]imidazol-6-ol] |
| 2190 nM |  | Oc1ccc2nc(-c3ccc4occc4c3)n(-c3ccnc(NC4CCOCC4)n3)c2c1 [22c, 2-(Benzofuran-5-yl)-1-(2-((tetrahydro-2H-pyran-4-yl)amino)pyrimidin-4-yl)-1H-benzo[d]imidazol-6-ol] |
| 45 nM |  | Oc1ccc2nc(-c3ccc4ccccc4c3)n(-c3ccnc(NC4CCCCC4)n3)c2c1 [23a, 1-(2-(Cyclohexylamino)pyrimidin-4-yl)-2-(naphthalen-2-yl)-1H-benzo[d]imidazol-6-ol] |
| 281 nM |  | Oc1ccc2nc(-c3ccc4c(c3)OCCO4)n(-c3ccnc(NC4CCCCC4)n3)c2c1 [23b, 1-(2-(Cyclohexylamino)pyrimidin-4-yl)-2-(2,3-dihydrobenzo[b][1,4]dioxin-6-yl)-1H-benzo [d]imidazol-6-ol] |
| 71 nM |  | Oc1ccc2nc(-c3ccc4occc4c3)n(-c3ccnc(NC4CCCCC4)n3)c2c1 [23c, 2-(Benzofuran-5-yl)-1-(2-(cyclohexylamino)pyrimidin-4-yl)-1H-benzo[d]imidazol-6-ol] |
| 110 nM |  | Oc1ccc2nc(-c3ccc(Cl)c(Cl)c3)n(-c3ccnc(NC4CCCCC4)n3)c2c1 [23d, 1-(2-(Cyclohexylamino)pyrimidin-4-yl)-2-(3,4-dichlorophenyl)-1H-benzo[d]imidazol-6-ol] |
| 305 nM |  | Oc1ccc2nc(-c3ccc(F)c(C(F)(F)F)c3)n(-c3ccnc(NC4CCCCC4)n3)c2c1 [23e, 1-(2-(Cyclohexylamino)pyrimidin-4-yl)-2-(4-fluoro-3-(trifluoromethyl)phenyl)-1H-benzo [d]imidazol-6-ol] |
| 424 nM |  | Oc1ccc2nc(-c3ccc4ccccc4n3)n(-c3ccnc(NC4CCCCC4)n3)c2c1 [23f, 1-(2-(Cyclohexylamino)pyrimidin-4-yl)-2-(quinolin-2-yl)-1H-benzo[d]imidazol-6-ol] |
| 114 nM |  | O=C(C1CC1)N1CCC[C@H](Nc2nccc(-n3c(-c4ccc5c(c4)OCCO5)nc4ccc(O)cc43)n2)C1 [26b, (S)-Cyclopropyl(3-((4-(2-(2,3-dihydrobenzo[b][1,4]dioxin-6-yl)-6-hydroxy-1H-benzo[d]imidazol-1-yl)pyrimidin-2-yl)amino)piperidin-1-yl)methanone] |
| 42 nM |  | O=C(C1CC1)N1CCC[C@H](Nc2nccc(-n3c(-c4ccc5occc5c4)nc4ccc(O)cc43)n2)C1 [26c, (S)-(3-((4-(2-(Benzofuran-5-yl)-6-hydroxy-1H-benzo[d]imidazol-1-yl)pyrimidin-2-yl)amino)piperidin-1-yl)(cyclopropyl)methanone] |
| 22 nM | ~20 nM | O=C(C1CC1)N1CCC[C@H](Nc2nccc(-n3c(-c4ccc(Cl)c(Cl)c4)nc4ccc(O)cc43)n2)C1 [26d, (S)-Cyclopropyl(3-((4-(2-(3,4-dichlorophenyl)-6-hydroxy-1H-benzo[d]imidazol-1-yl)pyrimidin-2-yl)amino)piperidin-1-yl)methanone] |
| 100 nM |  | O=C(C1CC1)N1CCC[C@H](Nc2nccc(-n3c(-c4ccc(F)c(C(F)(F)F)c4)nc4ccc(O)cc43)n2)C1 [26e, (S)-Cyclopropyl(3-((4-(2-(4-fluoro-3-(trifluoromethyl)phenyl)-6-hydroxy-1H-benzo[d]imidazol-1-yl)pyrimidin-2-yl)amino)piperidin-1-yl)methanone] |
| 189 nM |  | O=C(C1CC1)N1CCC[C@H](Nc2nccc(-n3c(-c4ccc5ccccc5n4)nc4ccc(O)cc43)n2)C1 [26f, (S)-Cyclopropyl(3-((4-(6-hydroxy-2-(quinolin-2-yl)-1H-benzo[d]imidazol-1-yl)pyrimidin-2-yl)amino)piperidin-1-yl)methanone] |
